Results reported in US9084785B2, “Composition for accelerating change in muscle type” (AMOREPACIFIC CORPORATION, priority 2010, dated 2015).

Legend:
C57BL/6 mice [1] = assay: Blood analysis (blood sugar, serum triglyceride and cholesterol); type: in vivo, mouse; conditions: 200 mg/kg oral once a day, 8 weeks
Method: 5-week-old male C57BL/6 mice were grouped with 10 mice per group. They were orally administered with Gynostemma pentaphyllum leaf extract, Artemisia princeps extract, astragali radix extract or EPA alone, a mixture of Artemisia princeps extract, Gynostemma pentaphyllum leaf extract and astragali radix extract or a mixture of EPA, Gynostemma pentaphyllum leaf extract and astragali radix extract (200 mg/kg) as test substances for 8 weeks, once a day. Then, blood analysis was performed to evaluate blood sugar level and serum triglyceride and cholesterol levels. The blood sugar level was measured using the Accu-Check Active kit (Roche Diagnostics, Seoul, Korea). The blood sample was centrifuged at 3000 rpm for 10 minutes to separate serum. Triglyceride and cholesterol levels in the separated serum were analyzed using the […] analyzer (Vital Scientific, […], The Netherlands).

C57BL/6 mice [2] = assay: Change in muscle type (slow-twitch myosin staining of plantaris muscle); type: in vivo, mouse; conditions: 200 mg/kg oral once a day, 8 weeks
Method: 5-week-old male C57BL/6 mice were grouped with 10 mice per group to evaluate change in muscle type after administration of test substances. The experimental mice were orally administered with Gynostemma pentaphyllum leaf extract, Artemisia princeps extract, astragali radix extract or EPA alone, a mixture of Artemisia princeps extract, Gynostemma pentaphyllum leaf extract and astragali radix extract or a mixture of EPA, Gynostemma pentaphyllum leaf extract and astragali radix extract (200 mg/kg) as test substances for 8 weeks, once a day. The mice were fasted for 12 hours before autopsy. Plantaris muscle was taken from the mice of each test group and frozen in liquid nitrogen. The frozen tissue was sliced to 10-μm thickness using a cryotome, fixed in acetone for 10 minutes, and washed 3 times with PBS. After blocking for 2 hours with PBS containing 10% FBS, the tissue sections were treated with anti-slow-twitch myosin antibody (Abcam, Cambridge, UK) as primary antibody and with fluorescein isothiocyanate (FITC)-conjugated anti-mouse IgG antibody (Molecular Probes) as secondary antibody. After mounting with antifade solution, the sections were examined by confocal microscopy.

CC/C=C\C/C=C\C/C=C\C/C=C\C/C=C\CCCC(=O)O [EPA, eicosapentaenoic acid]
Blood sugar (C57BL/6 mice [1]): 181.2 ± 10.9 mg/dL | Cholesterol (C57BL/6 mice [1]; serum): 164.9 ± 12.1 mg/dL | Triglyceride (C57BL/6 mice [1]; serum): 101.23 ± 11.3 mg/dL | Fast-twitch muscle (%) (C57BL/6 mice [2]): 70.6 ± 3.6% | Slow-twitch muscle (%) (C57BL/6 mice [2]): 29.4 ± 4.2%
